The subject of the assay is alpha, Adrenoceptors. In words: Methoxamine-induced contraction in rat aortic rings (alpha1 blocking potency). The note with it: 45 minute incubation; Figure 5B. How it is done:
In order to determine the alpha1 blocking potency of cinanserin, ketanserin and LY 53857, their effect on methoxamine induced aortic constriction was determined. Male Sprague-Dawley rats were sacrificed using C02. Aortic rings (3 mm in width) were cut, denuded of endothelium by gently rolling the rings on moistened filter paper, and mounted on stainless steel hooks in 20 mL muscle chambers containing oxygenated physiological salt solution (PSS) of the following composition (in mM): 118.4 NaCI, 4.7 KCI, 1.2 MgS04, 1.2 KH2P04, 1.9 CaC12, 25.0 NaHC03, 10.1 D-glucose, and 0.01 mM Na2EDTA maintained at 37 °C. The hooks were connected to Grass FT03C transducers for recording of isometric force development. The rings were stretched to 2 g preload during the equilibration period. During equilibration the rings were periodically stimulated with 24 mM KCI to determine contractility. The effectiveness of endothelial removal was confirmed by the absence of relaxation by 1 µM acetylcholine of a contraction in response to 0.01 µM phenylephrine.
Various concentrations of the test compounds were then added to individual baths and allowed a 45 minute incubation before cumulative concentration response curves for methoxamine (1 nM-30 /1.M) were obtained. Solvent controls were run in parallel. […]

`O=C(c1ccc(F)cc1)C1CCN(CCn2c(=O)[nH]c3ccccc3c2=O)CC1` [Ketanserin, ketanserin]: the “concentration from which the shift of the methoxamine-tension curve was significant” value came out at 0.3 µM.

These data come from patent EP0596449A2, “Serotonin receptor antagonists for treating myocardial ischemia” (E.R. SQUIBB & SONS, INC., priority 1992, dated 1994).
